Data reported in publication PMC2131757 (BMC Neuroscience, 2007).

Tests used:
Format in all cases: cell-based, murine
[1] = test system: cPLA2 in NB4 1A3 neuroblastoma cells
[2] = test system: COX-1 in NB4 1A3 neuroblastoma cells
[3] = test system: NB4 1A3 neuroblastoma cells
[4] = test system: NB4 1A3 neuroblastoma cells; details: n = 6
[5] = test system: NB4 1A3 neuroblastoma cells; remark: listed apart in the source
[6] = test system: NB4 neuroblastoma cells
[7] = test system: NB4 1A3 neuroblastoma cells; remark: listed apart in the source

## 1-O-alkyl-2-acetyl-sn-glycerol-3-phospho-(N,N,N-trimethyl)-hexanolamine [Hexa-PAF]
[1]
  % of MoPrP105-132 co-localised with cPLA2 in Hexa-PAF-treated cells: 22% ± 6
[2]
  % of MoPrP105-132 co-localised with COX-1 in Hexa-PAF-treated cells: 13% ± 3

## C=C(CC[C@]12O[C@H](C(=O)O)[C@@](O)(C(=O)O)[C@](C(=O)O)(O1)[C@H](OC(=O)/C=C/[C@@H](C)C[C@@H](C)CC)[C@H]2O)[C@@H](OC(C)=O)[C@H](C)Cc1ccccc1 [Squalestatin, squalestatin]
[3]
  % of MoPrP105-132 co-localised with CTxB in squalestatin-treated cells: 5% ± 1
  % of MoPrP105-132 co-localised with GM130 (Golgi) in squalestatin-treated cells: 7% ± 2
  % of MoPrP105-132 co-localised with Grp78 (ER) in squalestatin-treated cells: 3% ± 2
  % of MoPrP105-132 co-localised with LAMP-1 (lysosomes) in squalestatin-treated cells: 40% ± 6
  % of MoPrP105-132 co-localised with TfR (early endosomes) in squalestatin-treated cells: 68% ± 8
  % of MoPrP105-132 co-localised with caveolin-1 in squalestatin-treated cells: 9% ± 3
[4]
  cell associated fluorescence (mean fluorescence intensity) of ingested MoPrP105-132 in squalestatin treated cells: 25.3 ± 4 arbitrary units
[1]
  % of MoPrP105-132 co-localised with cPLA2 in squalestatin-treated cells: 13% ± 4
[5]
  endosomal fraction in which MoPrP105-132 is detected in squalestatin-treated cells: detected in the LAMP-1 positive, TfR negative, lysosomal fraction
[6]
  effect of squalestatin treatment on MoPrP105-132 induced neurotoxicity: prevent peptide-induced neurotoxicity
[7]
  membrane fraction in which MoPrP105-132 is found (raft / non-raft) in squalestatin-treated cells: most of the MoPrP105-132 was detected in the non-raft fraction
[2]
  % of MoPrP105-132 co-localised with COX-1 in squalestatin-treated cells: 5% ± 5
